Tests used:
cardiac contractility = test: Cardiac contractility in cardiovascular patients (inotropic effect); assay type: in vivo; conditions: 30 mg/day intramuscular
Text: (§1) The technology used to show the hemodynamic changes was of the non-invasivetype, as in this way experiments can be repeated and are completely innoxious for the patient. Of all the non-invasive methods of diagnosis we selected the most reliable of actual conditions, which is the method of ultrasounds (echo and Doppler's effects). The bidimensional echocardiography in real time, combined with pulsatile Doppler and the bidimensional vascular echography combined with pulsatile Doppler hemodynamic, are actually the two most reliable non-invasive techniques for the study of the anatomic changes and macroscopic hemodynamics with regard to the cardiovascular apparatus. That's why we used for the study of the clinical effects of the 2,4,6-triiodophenol an echo-Doppler trade mark ATL (Mark V), being the transmission frequency of 3 MHz, as well as a continuous Doppler trade mark SONICAID of 4 and 8 MHz.
(§2) Patients were divided in four statistically acceptable groups (50 in each group), comparing the results obtained with this medicament before, during and after the treatment.
(§3) Methodologically there are practiced echographical cuts in real time of the heart, big vases, supra-aortic trunks, abdominal aorta, portal and caval systems and iliac and femoral arteries, obtaining fluxmetric samples Doppler in all the mentioned cardiac cavities and blood vessels to study the sense of the flow, outflow (stream) or volume of flow and the hemodynamic features of the sanguineous flow.
(§4) Hereunder we expose the clinical results obtained after the administration during three months of the 2,4,6-triiodophenol in 200 cardiovascular patients.
(§5) Sick persons were divided in 4 groups; (1) 50 patients with cerebral vascular insufficiency, (2) 50 patients with coronary insufficiency, (3) 50 patients with hepatic insufficiency and (4) 50 patients with peripheral vascular insufficiency of the lower extremities. All these persons received an intramuscular administration, a dosage of 30 mg/day of 2,4,6-triiodophenol, carrying out controls at the first, second and third month of all angiohemodynamic parameters, supposing a total of 600 controls (150 per each group after the three months).

Solubility = assay type: physicochemical
waste (minute volume) = test: Waste / minute volume by echo-Doppler in cardiovascular patients (peripheral hyperemia); assay type: in vivo; conditions: 30 mg/day intramuscular
Text: as §1, §2, §3, §4, §5

velocity of blood flow = test: Speed of flow by echo-Doppler in cardiovascular patients (fluidifying + hemodynamizing action); assay type: in vivo; conditions: 30 mg/day intramuscular
Text: as §1, §2, §3, §4, §5

[1] = test system: granuloma formed around cotton implant; test: Cotton implant granuloma test; assay type: in vivo, rats; conditions: 72 hours
Protocol: (B) To a group of 10 rats of about 200-225 g is implanted at the dorsal zone, subcutaneously, balled cotton (about 9 mg) impregnated and afterwards dried with a solution of medicamentous substance and which amount is known.
We use as reference Dexamethasone and controls without medicament.
After 72 hours, once the animal is sacrificed, the granuloma formed around the implant is extracted and weighed, after drying at 100° C.
The antiinflammatory reduces the weight of the granuloma.

Carrageenin leg oedema = Carrageenin leg oedema test; assay type: in vivo, white rats; conditions: for inhibition at 5 mg/kg: Rattus norvegicus, 5 mg/kg oral
Protocol: (A) The antiinflammatory action is shown in white rats, of a weight of about 200-225 g, having provoked in these animals the leg oedema by means of an injection in the sole of the foot of 0.1 ml of a 1% Carrageenin solution.
One control group of ten animals, another the same medicated with indomethacin via oral at 30 mg/kg, in suspension in a carboxymethylcellulose solution, another group of ten rats, medicated with triiodophenol in oral solution at 5 mg/kg, another group medicated with triioodophenol at 1 mg/kg, injected via intramuscular and another group medicated with triiodophenol at 0.5 mg/kg via intramuscular. All medications are administered simultaneously to the formation of Edema.
The volume of the same is measured at 0 hours, 3 hours, 4 hours, 5 hours and 6 hours with a mercury Plestimograph.

[2] = test system: sensation of pain on hot plate; test: Hot plate test at 56° C; assay type: in vivo, mice
Protocol: (A) To control analgesic activity we use mice of about 25 g by weight, in groups of ten mice, subjected to the test of the hot plate at 56° C.
Animals receive a medicamentous injection of 0.1 ml of solubilized aspirin with sodium bicarbonate, or of solubilized triiodophenol at pH 9'5.
Controls receive physiologic serum.
The time in which the animals indicate sensation of pain is measured with a chronometer.
In the hereunder table the results testing animals, 15 min. and 30 min. after the medication. Average values are taken of each group.

pressure = test: Systemic arterial and portal pressure in cardiovascular patients (hypotensor action); assay type: in vivo; conditions: 30 mg/day intramuscular
Text: as §1, §2, §3, §4, §5

[3] = Tolerability after three months administration in 200 cardiovascular patients; assay type: in vivo
Protocol: as §4, §5

With Oc1c(I)cc(I)cc1I [2,4,6-triiodophenol] the “Ejection fraction, variation (Δ %)” value (cardiac contractility; 1st month) was -9,1%, the “Ejection volume, variation (Δ %)” value (cardiac contractility; 1st month) was -9% and the “Telediastolic volume, variation (Δ %)” value (cardiac contractility; 1st month) was -3%. For the same compound, the “Telesystolic volume, variation (Δ %)” value (cardiac contractility; 1st month) was “+8%”, the “Ejection fraction, variation (Δ %)” value (cardiac contractility; 2nd month) was -8,8% and the “Ejection volume, variation (Δ %)” value (cardiac contractility; 2nd month) was -8,4%. The “Telediastolic volume, variation (Δ %)” value (cardiac contractility; 2nd month) was -5%, the “Telesystolic volume, variation (Δ %)” value (cardiac contractility; 2nd month) was “+11%” and the “Ejection fraction, variation (Δ %)” value (cardiac contractility; 3rd month) was -8,6%. The “Ejection volume, variation (Δ %)” value (cardiac contractility; 3rd month) was -8%, the “Telediastolic volume, variation (Δ %)” value (cardiac contractility; 3rd month) was -6% and the “Telesystolic volume, variation (Δ %)” value (cardiac contractility; 3rd month) was “+13%”. The “Solubility in alkali solutions” value (Solubility; alkali solutions) was “soluble”, the “Solubility in chloroform and dichloromethane” value (Solubility; chloroform and dichloromethane) was “very soluble” and the “Solubility in organic dissolvents” value (Solubility; ethylic and propylic alcohols, acetone and sulfuric ether) was “somewhat soluble”. For the same compound, the Solubility in water (Solubility; water) was “not very soluble”, the “Cardiac waste, variation (Δ %)” value (waste (minute volume); 1st month) was “+5%” and the “Cerebral minute volume, variation (Δ %)” value (waste (minute volume); 1st month) was “+23%”. The “Hepatic minute volume (venous), variation (Δ %)” value (“Hepatic minute volume … (Δ %)” for short) (waste (minute volume); 1st month) was “+24%”, the “Lower extremity minute volume, variation (Δ %)” value (waste (minute volume); 1st month) was “+10%” and the “Cardiac waste, variation (Δ %)” value (waste (minute volume); 2nd month) was “+6%”. The “Cerebral minute volume, variation (Δ %)” value (waste (minute volume); 2nd month) was “+27,6%”, the “Hepatic minute volume … (Δ %)” value (waste (minute volume); 2nd month) was “+16%” and the “Lower extremity minute volume, variation (Δ %)” value (waste (minute volume); 2nd month) was “+24%”. For the same compound, the “Cardiac waste, variation (Δ %)” value (waste (minute volume); 3rd month) was “+11%”, the “Cerebral minute volume, variation (Δ %)” value (waste (minute volume); 3rd month) was “+34%” and the “Hepatic minute volume … (Δ %)” value (waste (minute volume); 3rd month) was “+23%”. For the same compound, the “Lower extremity minute volume, variation (Δ %)” value (waste (minute volume); 3rd month) was “+30%”, the “Increase of volume of flow, cerebral” value (waste (minute volume); conclusions, three months) was 34% and the “Increase of volume of flow, hepatic” value (waste (minute volume); conclusions, three months) was 23%. The “Increase of volume of flow, lower member” value (waste (minute volume); conclusions, three months) was 30%, the “Increase of volume of flow, systemic circulatory minute” value (waste (minute volume); conclusions, three months) was 11% and the “Speed of flow, abdominal aorta, variation (Δ %)” value (velocity of blood flow; 1st month) was “+3%”. For the same compound, the “Speed of flow, caval iliac artery, variation (Δ %)” value (velocity of blood flow; 1st month) was “+7%”, the “Speed of flow, portal carotid aorta, variation (Δ %)” value (velocity of blood flow; 1st month) was “+11%” and the “Speed of flow, portal system, variation (Δ %)” value (velocity of blood flow; 1st month) was “+16%”. The “Speed of flow, postcaval system, variation (Δ %)” value (velocity of blood flow; 1st month) was “+8%”, the “Speed of flow, thoracic aorta, variation (Δ %)” value (velocity of blood flow; 1st month) was “+2%” and the “Speed of flow, abdominal aorta, variation (Δ %)” value (velocity of blood flow; 2nd month) was “+5%”. For the same compound, the “Speed of flow, caval iliac artery, variation (Δ %)” value (velocity of blood flow; 2nd month) was “+11%”, the “Speed of flow, portal carotid aorta, variation (Δ %)” value (velocity of blood flow; 2nd month) was “+14%” and the “Speed of flow, portal system, variation (Δ %)” value (velocity of blood flow; 2nd month) was “+21%”. For the same compound, the “Speed of flow, postcaval system, variation (Δ %)” value (velocity of blood flow; 2nd month) was “+12%”, the “Speed of flow, thoracic aorta, variation (Δ %)” value (velocity of blood flow; 2nd month) was “+3%” and the “Speed of flow, abdominal aorta, variation (Δ %)” value (velocity of blood flow; 3rd month) was “+7%”. For the same compound, the “Speed of flow, average value (arteries), variation (Δ %)” value (velocity of blood flow; 3rd month) was “+11%”, the “Speed of flow, average value (veins), variation (Δ %)” value (velocity of blood flow; 3rd month) was “+17%” and the “Speed of flow, caval iliac artery, variation (Δ %)” value (velocity of blood flow; 3rd month) was “+14%”. The “Speed of flow, portal carotid aorta, variation (Δ %)” value (velocity of blood flow; 3rd month) was “+19%”, the “Speed of flow, portal system, variation (Δ %)” value (velocity of blood flow; 3rd month) was “+29%” and the “Speed of flow, postcaval system, variation (Δ %)” value (velocity of blood flow; 3rd month) was “+15%”. The “Speed of flow, thoracic aorta, variation (Δ %)” value (velocity of blood flow; 3rd month) was “+5%”, the “Increase of speed of the sanguineous flow in the arteries” value (velocity of blood flow; conclusions, three months) was 11% and the “Increase of speed of the sanguineous flow in the veins” value (velocity of blood flow; conclusions, three months) was 17%. The “% Reduction of the granuloma (Average)” value ([1]; 100 micrograms per implant) was 19%, the “% Reduction of the granuloma (Average)” value ([1]; 200 micrograms per implant) was 28% and the “% Reduction of the granuloma (Average)” value ([1]; 400 micrograms per implant) was 44%. The “% inhibition (oedema)” value (Carrageenin leg oedema; 0,5 mg/kg inj. (intramuscular), 3 hours) was 20%, the “% inhibition (oedema)” value (Carrageenin leg oedema; 0,5 mg/kg inj. (intramuscular), 4 hours) was 42% and the “% inhibition (oedema)” value (Carrageenin leg oedema; 0,5 mg/kg inj. (intramuscular), 5 hours) was 49%. The “% inhibition (oedema)” value (Carrageenin leg oedema; 0,5 mg/kg inj. (intramuscular), 6 hours) was 60%, the “% inhibition (oedema)” value (Carrageenin leg oedema; 1 mg/kg inj. (intramuscular), 4 hours) was 66% and the “% inhibition (oedema)” value (Carrageenin leg oedema; 1 mg/kg inj. (intramuscular), 5 hours) was 75%. For the same compound, the “% inhibition (oedema)” value (Carrageenin leg oedema; 1 mg/kg inj. (intramuscular), 6 hours) was 82%, the inhibition at 5 mg/kg (Carrageenin leg oedema; 3 hours) was 43% and the inhibition at 5 mg/kg (Carrageenin leg oedema; 4 hours) was 50%. The inhibition at 5 mg/kg (Carrageenin leg oedema; 5 hours) was 57%, the inhibition at 5 mg/kg (Carrageenin leg oedema; 6 hours) was 65% and the “Time to sensation of pain” value ([2]; 1 mg/kg injection, 15 minutes) was 6,5 sec. For the same compound, the “Time to sensation of pain” value ([2]; 1 mg/kg injection, 30 minutes) was 6,7 sec, the “Time to sensation of pain” value ([2]; 10 mg/kg injection, 15 minutes) was 11,7 sec and the “Time to sensation of pain” value ([2]; 10 mg/kg injection, 30 minutes) was 11,8 sec. For the same compound, the “Portal pressure, variation (Δ %)” value (pressure; 1st month) was -8%, the “Systemic arterial pressure, variation (Δ %)” value (pressure; 1st month) was -3% and the “Portal pressure, variation (Δ %)” value (pressure; 2nd month) was -11%. For the same compound, the “Systemic arterial pressure, variation (Δ %)” value (pressure; 2nd month) was -5%, the “Portal pressure, variation (Δ %)” value (pressure; 3rd month) was -13% and the “Systemic arterial pressure, variation (Δ %)” value (pressure; 3rd month) was -6%. The Thyroid function ([3]; iodine concentration of the product) was “does not alter the thyroid function” and the “Toxic effect or secondary effects of clinical importance” value ([3]; three months administration, 30 mg/day intramuscular) was “does not produce any toxic effect or secondary effects of clinical importance in none of the patients”.

From US4727090A, “Process for preparing and therapeutical applications of the 2,4,6-triiodophenol” (Bislak, S.A., priority 1983, dated 1988)
